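Assay format: 96-well plates, 48-hour exposure. At the GI50, growth is halved. TGI: concentration producing complete growth inhibition.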
Key:
Assay in all cases: NCI-60 cell line screen, 48 h
786-0 renal = system: 786-0 renal
A498 renal = system: A498 renal
CAKI-1 renal = system: CAKI-1 renal
DU-145 prostate = system: DU-145 prostate
HL-60(TB) leukemia = system: HL-60(TB) leukemia
MDA-MB-435 = system: MDA-MB-435
NCI-H460 lung = system: NCI-H460 lung
OVCAR-4 ovarian = system: OVCAR-4 ovarian
OVCAR-8 ovarian = system: OVCAR-8 ovarian
SK-MEL-28 melanoma = system: SK-MEL-28 melanoma

Compound | GI50 (786-0 renal) [µM] | TGI (786-0 renal) [µM] | GI50 (A498 renal) [µM] | TGI (A498 renal) [µM] | GI50 (CAKI-1 renal) [µM] | TGI (CAKI-1 renal) [µM] | GI50 (DU-145 prostate) [µM] | TGI (DU-145 prostate) [µM] | GI50 (HL-60(TB) leukemia) [µM] | TGI (HL-60(TB) leukemia) [µM] | GI50 (MDA-MB-435) [µM] | TGI (MDA-MB-435) [µM] | GI50 (NCI-H460 lung) [µM] | TGI (NCI-H460 lung) [µM] | GI50 (OVCAR-4 ovarian) [µM] | TGI (OVCAR-4 ovarian) [µM] | GI50 (OVCAR-8 ovarian) [µM] | TGI (OVCAR-8 ovarian) [µM] | GI50 (SK-MEL-28 melanoma) [µM] | TGI (SK-MEL-28 melanoma) [µM]
O=C1Nc2c(C(F)(F)F)cccc2[C@@]1(c1ccc(O)cc1)c1ccc(OC(F)(F)F)cc1 | 0.0265 | 1.21 | < 0.0148 | 0.0337 | 0.0364 | 0.971 | 0.0303 | 0.0866 | 5.59 | 23.8 | 7.92 | 21.9 | 4.19 | 19.7 | < 0.01 | < 0.01 | < 0.01 | 0.0102 | 13.3 | 27.7
CC(C)(C)C(=O)OCOP(=O)(OCOC(=O)C(C)(C)C)C1CC(O)N(O)C1=O (stereo unspecified) | 3.68 | > 100 | 4.36 | 47.3 | 4.87 | > 100 | 6.7 | > 100 | 3.44 | 22.1 | 8.15 | > 100 | 4.35 | > 100 | 17.5 | > 100 | 4.73 | > 100 | 2.38 | 6.44
CCCCCCCCCCCCCC1=NCCN1CCO | 5.17 | 11.2 | 2.75 | 14.6 | 2.34 | 7.27 | 3.88 | 15.7 | 3.11 | > 100 | 2.97 | 9.07 | 2.13 | 4.63 | 7.23 | 39.8 | 3.4 | > 28.1 | 1.99 | 4.02
COC(=O)[C@]12CC[C@@H](C)[C@H](C)[C@@H]1C1=CC[C@@H]3[C@@]4(C)C(C=O)=C[C@@](C)(COC(C)=O)C4=CC[C@@]3(C)[C@]1(C)CC2 | 3.5 | 15 | 10.8 | 24 | 3.66 | 17 | 5.24 | 19.4 | 2.68 | 6.49 | 4.28 | 16.4 | 3.98 | 15.2 | 4.06 | 18.3 | 4.46 | 18.9 | 3.22 | 12.3
O=C1C(=O)c2c(nc3ccc(Br)cn23)-c2ccccc21 | 1.85 | 3.36 | 1.51 | 2.87 | 1.52 | 3.01 | 0.483 | 1.03 | 0.242 | 0.624 | 0.185 | 0.334 | 1.09 | 2.69 | 0.191 | 0.398 | 0.575 | 1.68 | 0.606 | 1.56
Cc1cc(O)ccc1C1=NN(c2ccc(S(C)(=O)=O)cc2)C(=O)CC1 | 92.5 | > 100 | 2.78 | 45.4 | 2.79 | 16.5 | 24.7 | > 100 | 3.52 | 48.4 | 1.28 | 5.83 | 3.87 | > 100 | 76.9 | > 100 | 12.3 | > 100 | 9.55 | > 100
Clc1ccc2c(c1)N(CCCN1CCCC1)c1ccccc1S2 | 5.38 | 19.3 | 2.2 | 10.2 | 11 | 22.9 | 8.61 | 20.9 | 4.34 | 16.8 | 1.92 | 4.02 | 15.2 | 35.4 | 7.82 | 21.2 | 9.64 | 23.4 | 6.6 | 21.4
NC(=O)c1ccc(NN=O)nc1 | – | > 100 | – | > 100 | – | > 100 | – | > 100 | – | > 100 | > 100 | > 100 | – | > 100 | – | > 100 | – | > 100 | – | > 100
CNC(=O)OCc1c2ccncc2c(C)c2c1[nH]c1ccccc12 | – | 14.2 | – | 0.673 | – | 1.25 | – | 6.18 | – | 0.92 | – | 1.58 | – | 1.81 | – | 1.38 | – | 2.16 | – | 2.25
CS(=O)(=O)Nc1ccc(-c2cc(-c3ccccc3)cc(C(N)=O)c2N)cc1 | > 25 | > 25 | > 20.5 | > 25 | > 22.6 | > 25 | > 25 | > 25 | > 23.4 | > 25 | > 25 | > 25 | > 25 | > 25 | > 21.6 | > 25 | > 22.6 | > 25 | > 25 | > 25
C[C@H](Nc1ncnc2nc[nH]c12)c1cc2ccc(F)cc2nc1-c1ccccn1 | 14.3 | > 100 | 1.02 | 10.7 | 33.7 | > 100 | > 100 | > 100 | 30.3 | > 100 | > 100 | > 100 | > 100 | > 100 | > 100 | > 100 | > 100 | > 100 | > 100 | > 100
C/C(=C\CCc1ccoc1)CC/C=C(\C)CCCN1CCOCC1 | 1.83 | 4.18 | 4.48 | 19.7 | 3.65 | 14.9 | 10.3 | 22.3 | 2.5 | 5.5 | 3.48 | 13.7 | 4.79 | 17.8 | 3.21 | 14.3 | 13.7 | 28 | 10.3 | 24
